Patent US20030109705A1, “Novel cyanoenamines useful as ligands for modulating gene expression in plants or animals” (priority 2001, published 2003)
Values after ≈ are worked out from the molar mass of the structure shown.

Tests used:
[1] = target: T1, truncated Manduca EcR-VP16 (Manduca sexta, UniProt P49883); assay: Cell-based luciferase reporter assay of transcriptional activation by EcR receptor plasmid (MMV) in S2 Drosophila cells; conditions: ligand 2 μM, harvested 24 hours after addition, ratio relative to reporter construct without ligand
T1 construct: A truncated Manduca EcR containing domains C, D and E of the receptor was constructed as follows; engineered start Met (in-frame ATG) (N); expressed in transfected cells; host or cells: S2 Drosophila cells (ATCC CRL-1963), transiently transfected with plasmid MMV (pPacU backbone)
T1 sequence (P49883 112-535, added parts left off): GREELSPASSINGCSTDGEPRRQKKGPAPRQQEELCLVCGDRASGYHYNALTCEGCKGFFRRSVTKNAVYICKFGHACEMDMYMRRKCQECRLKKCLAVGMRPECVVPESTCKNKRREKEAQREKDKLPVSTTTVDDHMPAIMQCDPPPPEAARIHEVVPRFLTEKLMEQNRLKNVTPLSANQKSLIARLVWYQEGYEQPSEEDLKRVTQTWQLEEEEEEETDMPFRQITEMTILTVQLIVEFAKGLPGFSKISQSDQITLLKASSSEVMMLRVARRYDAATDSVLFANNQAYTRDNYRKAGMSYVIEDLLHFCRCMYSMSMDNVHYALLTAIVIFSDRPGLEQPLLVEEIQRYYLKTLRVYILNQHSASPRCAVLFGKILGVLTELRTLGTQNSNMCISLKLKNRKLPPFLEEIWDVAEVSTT
T1 sequence (P20153 whole entry partner, the tested form may be a part): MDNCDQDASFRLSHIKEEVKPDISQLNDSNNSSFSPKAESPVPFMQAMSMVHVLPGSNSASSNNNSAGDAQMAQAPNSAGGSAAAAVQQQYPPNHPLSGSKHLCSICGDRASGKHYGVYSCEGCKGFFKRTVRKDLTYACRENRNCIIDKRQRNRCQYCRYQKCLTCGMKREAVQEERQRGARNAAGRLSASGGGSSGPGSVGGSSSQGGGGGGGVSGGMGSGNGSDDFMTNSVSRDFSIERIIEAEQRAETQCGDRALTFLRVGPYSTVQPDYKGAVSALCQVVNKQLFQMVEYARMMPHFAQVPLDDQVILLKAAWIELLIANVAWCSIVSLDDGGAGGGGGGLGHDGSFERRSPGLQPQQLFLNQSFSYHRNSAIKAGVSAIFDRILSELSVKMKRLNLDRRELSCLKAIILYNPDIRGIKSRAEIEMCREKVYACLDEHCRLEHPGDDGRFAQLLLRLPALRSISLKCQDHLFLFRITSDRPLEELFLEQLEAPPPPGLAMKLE
Text: A minimal promoter vector was made by ligating a synthetic TATA box sequence oligonucleotide pair, 5′-agcttgagggtataatg-3′ (SEQ ID NO: 1) and 3′-actcccatattactcga-5′ (SEQ ID NO:2), into the HindIII site of vector pGL3-basic (Promega) so that the HindIII site was recreated 5′ to the inserted oligonucleotide and destroyed between the oligonucleotide and the downstream luciferase gene. This vector was designated TATA5.
The binding site from the hsp27 gene (Koelle et al., Cell 67(1): 59-77 (1991)) was made with the oligonucleotide pair, 5′-[…]-3′ (SEQ ID NO:3) and 3′-[…]-5′ (SEQ ID NO:4). This site was multimerized and ligated into the BglII site of vector TATA-5. One isolate, pCGS154, contained the sequence below in the inserted region, having 2 pairs of sites in inverted orientations. […] The sequence of the inserted region in pCGS154 is shown below:
PCR primers were designed based on the published sequence for Manduca Sexta ecdysone receptor (EcR) (genbank accession number U19812 (SEQ ID Nos:6 and 7) to clone the gene in two halves. RNA was prepared from prepupae larva of Manduca sexta using the LiCl/phenol method (Current Protocols in Molecular Biology, Vol. 1, Unit 4.3, 1987, John Wiley and Sons, publishers) and 1 μg of total RNA was used to prepare cDNA using MMLV reverse transcriptase (Promega). The cDNA was used in a PCR reaction with the primers described above to generate two PCR products for the 5′ and 3′ halves of the gene. These were subcloned into the pGEM-TA vector (Promega) and sequenced. The two fragments were joined at a unique Ndel site within each fragment and ligated into pBS-KS (Stratagene) to create a full length Manduca sexta EcR clone named pBSFLMa. A HindIII site followed by an inframe stop codon and BamHI site was placed at the 3′ end of the E domain (ligand binding domain) of the Manduca EcR receptor using the oligonucleotide: 5′-[…]-3′ (SEQ ID NO:8).
A truncated Manduca EcR containing domains C, D and E of the receptor was constructed as follows. A BamHI site and in-frame ATG was engineered just 5′ to the C domain using the degenerate primers 5′-ggatccatgggycgagaagaattrtcaccr-3′ (SEQ ID NO:9) and 5′-ccacrtcccagatctcctcga-3′ (SEQ ID NO:10). This fragment was then joined using the Nde site to the 3′ end of Manduca EcR, which has an engineered HindIII site at the 3′ end as described above.
A fragment containing the herpes simplex VP16 transactivation domain was cloned from plasmid 35S/USP-VP16 (U.S. Pat. No. 5,880,333) using the PCR primers 5′-aagcttgcccccccgaccg-3′ (SEQ ID NO:11) (placing a HindIII site at the 5′ end of the domain) and 5′-[…]-3′ (SEQ ID NO:12) (placing an inframe stop codon followed by BamHI and Xbal sites at the 3′ end of the domain). The VP16 domain was fused in frame to the 3′ end of the E domain of the ecdysone receptor using the HindIII site 3′ to EcR clone and the HindIII site engineered at the 5′ end of VP16.
The plasmid pPacU (Courey A J and Tjian R (1988) Cell 55, 887-898) was used as the starting vector for expression constructs. The truncated Manduca EcR-VP16 was ligated into pPacU using the BamHI sites flanking the coding region to create the construct referred to as MMV.
An in vivo cell based assay was used to measure transcriptional activation by the EcR receptor plasmid in the presence of the chemical ligands as described above. S2 Drosophila cells (ATCC CRL-1963) (commonly known as cells from the fruit fly) were transiently transfected with luciferase reporter (pCGS154) and receptor expression plasmid (MMV) using the calcium phosphate precipitation procedure (Di Nocera and David (1983) PNAS 80, 7095-7098). S2 cells were plated in 96 well format at a density of 2×10^5 in 166.6 μl of Schneider's Drosophila media supplemented with antibiotics and 10% heat inactivated fetal bovine serum (GIBO-BRL). […]

Spodoptera littoralis = Spodoptera littoralis larvicide, feeding/contact activity on sprayed cotton leaf discs; assay type: in vivo; conditions: foliar, L1 larvae on sprayed cotton leaf discs, checked 2 and 6 days after treatment, read-out: Insecticidal activity (EC80 ppm) SPODLI
Text: Spodoptera littoralis (abbreviated as SPODLI) (commonly known as Egyptian cotton leafworm): larvicide, feeding/contact activity. Cotton leaf discs were placed on agar in petri dishes and individually sprayed with test solution of cyanoenamine in an application chamber. After drying, the leaf discs were infested with 20 to 25 L1 larvae. The samples were checked for mortality, repellent effect, feeding behavior, and growth regulation 2 and 6 days after treatment. Each of Spodopertera littoralis and Heliothis virescens is a larval form of an insect in the order Lepidoptera.

Heliothis virescens = Heliothis virescens ovo-larvicide, feeding/contact activity on eggs on artificial diet; assay type: in vivo; conditions: 144 h, fresh eggs (0 to 24 hours old) on artificial diet, 6 days incubation, read-out: Insecticidal activity (EC80 ppm) Hv
Method: Heliothis virescens (abbreviated as Hv) (commonly known as tobacco budworm): ovo-larvicide, feeding/contact activity. 30 to 35 fresh eggs (0 to 24 hours old), deposited on filter paper, were placed in petri dishes on a layer of artificial diet and 0.8 mL of each test solution of cyanoenamine was individually pipetted onto them. After an incubation period of 6 days, samples were checked for egg mortality, larval mortality, and growth regulation.
Each of Spodopertera littoralis and Heliothis virescens is a larval form of an insect in the order Lepidoptera.

SMILES: Cc1cccc(/C(C#N)=C(\NC(=O)c2cccc(C)c2C)C(C)(C)C)c1
- Gene switch activity fold induction [1]: 66 fold induction

SMILES: Cc1c(Cl)cccc1C(=O)N/C(=C(/C#N)c1ccccc1)C(C)(C)C
- Gene switch activity fold induction [1]: 191 fold induction

SMILES: Cc1cccc(C(=O)N/C(=C(/C#N)c2ccccc2)C(C)(C)C)c1C
- Gene switch activity fold induction [1]: 636 fold induction

SMILES: Cc1c(Br)cccc1C(=O)N/C(=C(/C#N)c1ccccc1)C(C)(C)C
- Gene switch activity fold induction [1]: 1112 fold induction

SMILES: Cc1cc(C)cc(/C(C#N)=C(\NC(=O)c2cccc(Cl)c2Cl)C(C)(C)C)c1
- Gene switch activity fold induction [1]: 1145 fold induction

SMILES: CCc1c(OC)cccc1C(=O)N/C(=C(/C#N)c1ccccc1)C(C)(C)C
- Gene switch activity fold induction [1]: 239 fold induction

SMILES: COc1cccc(C(=O)N/C(=C(/C#N)c2ccccc2)C(C)(C)C)c1C
- Gene switch activity fold induction [1]: 913 fold induction

SMILES: Cc1cc(C)cc(/C(C#N)=C(\NC(=O)c2cccc(Cl)c2C)C(C)(C)C)c1 [drawing 443]
- EC80 (Spodoptera littoralis): 50 µg/mL (≈ 131 µM)
- EC80 (Heliothis virescens): 5 µg/mL (≈ 13.1 µM)

SMILES: Cc1cccc(/C(C#N)=C(\NC(=O)c2cccc(Br)c2C)C(C)(C)C)c1 [drawing 444]
- EC80 (Spodoptera littoralis): 200 µg/mL (≈ 486 µM)
- EC80 (Heliothis virescens): 200 µg/mL (≈ 486 µM)

SMILES: Cc1cc(C)cc(/C(C#N)=C(\NC(=O)c2cccc(Br)c2C)C(C)(C)C)c1 [drawing 445]
- EC80 (Spodoptera littoralis): > 50 µg/mL
- EC80 (Heliothis virescens): > 50 µg/mL

SMILES: CC(C)(C)/C(NC(=O)c1c(F)cccc1F)=C(\C#N)c1ccccc1 [drawing 446]
- EC80 (Spodoptera littoralis): > 100 µg/mL
- EC80 (Heliothis virescens): > 100 µg/mL

SMILES: Cc1cc(C)cc(/C(C#N)=C(\NC(=O)c2cccc(C)c2C)C(C)(C)C)c1 [drawing 447]
- EC80 (Spodoptera littoralis): 50 µg/mL (≈ 139 µM)
- EC80 (Heliothis virescens): 50 µg/mL (≈ 139 µM)

SMILES: COc1cccc(C(=O)N/C(=C(/C#N)c2cc(C)cc(C)c2)C(C)(C)C)c1C [drawing 448]
- EC80 (Spodoptera littoralis): 100 µg/mL (≈ 266 µM)
- EC80 (Heliothis virescens): 100 µg/mL (≈ 266 µM)

SMILES: COc1cccc(C(=O)N/C(=C(/C#N)c2cccc(C)c2)C(C)(C)C)c1C [drawing 449]
- EC80 (Spodoptera littoralis): 200 µg/mL (≈ 552 µM)
- EC80 (Heliothis virescens): 200 µg/mL (≈ 552 µM)

SMILES: CCc1ccc(C(=O)N/C(=C(/C#N)c2ccccc2)C(C)(C)C)cc1 [drawing 450]
- EC80 (Spodoptera littoralis): > 100 µg/mL
- EC80 (Heliothis virescens): > 100 µg/mL

SMILES: Cc1cc(C)cc(/C(C#N)=C(\NC(=O)c2cccc(Cl)c2C)C(C)(C)C)c1 [drawing 453]
- Gene switch activity fold induction [1]: 225 fold induction

SMILES: Cc1cccc(/C(C#N)=C(\NC(=O)c2cccc(Br)c2C)C(C)(C)C)c1 [drawing 457]
- Gene switch activity fold induction [1]: 1012 fold induction

SMILES: Cc1cc(C)cc(/C(C#N)=C(\NC(=O)c2cccc(Br)c2C)C(C)(C)C)c1 [drawing 458]
- Gene switch activity fold induction [1]: 1121 fold induction

SMILES: CC(C)(C)/C(NC(=O)c1c(F)cccc1F)=C(\C#N)c1ccccc1 [drawing 459]
- Gene switch activity fold induction [1]: 29 fold induction

SMILES: Cc1cc(C)cc(/C(C#N)=C(\NC(=O)c2cccc(C)c2C)C(C)(C)C)c1 [drawing 460]
- Gene switch activity fold induction [1]: 893 fold induction

SMILES: COc1cccc(C(=O)N/C(=C(/C#N)c2cc(C)cc(C)c2)C(C)(C)C)c1C [drawing 462]
- Gene switch activity fold induction [1]: 314 fold induction

SMILES: COc1cccc(C(=O)N/C(=C(/C#N)c2cccc(C)c2)C(C)(C)C)c1C [drawing 463]
- Gene switch activity fold induction [1]: 364 fold induction

SMILES: CCc1ccc(C(=O)N/C(=C(/C#N)c2ccccc2)C(C)(C)C)cc1 [drawing 464]
- Gene switch activity fold induction [1]: 394 fold induction
